Experimental data as given in EP0185979A1, “A novel substance having anti-tumor activity, a microbiological process for the preparation thereof and its use as a medicament” (MICROBIAL CHEMISTRY RESEARCH FOUNDATION, priority 1984, dated 1986).
In brackets after ≈: the same amount, converted by molar mass.

How the values were obtained:
[1] = test system: cultured mouse leukemia cell P388; assay: inhibition of growth of cultured cells; type: cell-based; settings: read-out: median inhibition dose, ID50
Description: The anti-tumor activity of substance MG883-12F2 can be confirmed by measuring its ability to inhibit the growth of known cultured cells. For example, the median inhibition dose, ID50, of substance MG883-12F2 against cultured mouse leukemia cell P388 was 0.5 mg/ml.

[2] = anti-tumor activity compared with streptonigrin; settings: comparison with streptonigrin, no data given
[3] = cytotoxicity compared with streptonigrin; settings: comparison with streptonigrin, no data given

## COc1ccc(-c2c(C)c(C(=O)O)nc(-c3ccc4c(n3)C(=O)C(N)=C(O)C4=O)c2N)c(O)c1OC [substance MG883-12F2]
[1]
  IC50: 500 µg/mL (≈ 1020 µM)
[2]
  anti-tumor activity: slightly inferior to streptonigrin
[3]
  cytotoxicity: lower cytotoxicity
